The target in one experiment is Beta-lactamase (Pseudomonas aeruginosa, UniProt Q79MP6).
The next experiment addresses Beta-lactamase VIM-2 (Pseudomonas aeruginosa, UniProt Q9K2N0).

Our source for the Ki values is ChEMBL document CHEMBL1671717, “In vitro potentiation of carbapenems with ME1071, a novel metallo-beta-lactamase inhibitor, against metallo-beta-lactamase- producing Pseudomonas aeruginosa clinical isolates” (Antimicrob Agents Chemother, 2010).

Chain of Beta-lactamase (Q79MP6 whole entry): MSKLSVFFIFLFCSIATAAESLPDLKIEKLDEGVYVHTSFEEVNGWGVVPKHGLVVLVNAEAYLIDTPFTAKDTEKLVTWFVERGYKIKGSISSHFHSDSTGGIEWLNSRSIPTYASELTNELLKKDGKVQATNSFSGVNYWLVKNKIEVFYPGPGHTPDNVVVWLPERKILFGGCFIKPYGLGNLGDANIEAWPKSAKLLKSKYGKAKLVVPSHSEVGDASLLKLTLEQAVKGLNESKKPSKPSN
Description for Beta-lactamase VIM-2: Inhibition of Pseudomonas aeruginosa beta-lactamase VIM-2 assessed as hydrolysis of nitrocefin by UV spectrophotometric analysis

Usually Ki stands for a dissociation constant, usually derived from enzyme kinetics or from competition with a known ligand. Read a low Ki as a stronger hold on the target. At Beta-lactamase, `C[C@@H](O)[C@H]1C(=O)N2C(C(=O)O)=C(Sc3cc4ccccc4s3)[C@H](C)[C@H]12` yielded an inhibition constant Ki of 180 nM. `CC/C(C(=O)O)=C(\CC)C(=O)O`: affinity at Beta-lactamase VIM-2 was put at a Ki of 120 µM. On Beta-lactamase, `COC1OC(C)=Cc2oc3cc(O)c(O)c(C(=O)O)c3c(=O)c21` (stereo not given) registered a Ki of 180 nM. Still for that read-out and setting: next, `O=C(O)CCS` [MERCAPTOPROPIONIC ACID]: 180 nM; `O=C(O)CS` [THIOGLYCOLIC ACID]: 180 nM.
